The test system of the assay is HEK293T cells carrying the ATF4 luciferase reporter. Description: ATF4-Luc assay (in vitro model of VWMD). Type of assay: cell-based, human. The note with it: Homo sapiens, HEK-293T, 1 μg/mL tunicamycin, 7 hours, One Glo luminescence. In short, it runs like this: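 Stable HEK293T line expressing firefly luciferase behind the human ATF4 5′-UTR, treated with 1 μg/mL tunicamycin plus compound for 7 hours. Luminescence read with One Glo; EC50 determined.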

With `O=C1CC(C(=O)NC23CCC(c4nnc(C5CC(OC(F)(F)F)C5)o4)(C2)C3)Oc2ccc(Cl)cc21` (stereo not shown) [Compound 150, 6-chloro-4-oxo-N-(4-{5-[(1s,3s)-3-(trifluoromethoxy)cyclobutyl]-1,3,4-oxadiazol-2-yl}bicyclo[2.1.1]hexan-1-yl)-3,4-dihydro-2H-1-benzopyran-2-carboxamide], the EC50 was more than 2000 nM.

As for `O=C(N[C@@H]1CC[C@@H](c2nnc([C@H]3C[C@@H](OC(F)(F)F)C3)o2)OC1)C1CC(O)c2cc(Cl)ccc2O1` (mixture of isomers) [Compound 161, (2RS,4RS)-6-chloro-4-hydroxy-N-[(3R,6)-6-{5-[cis-3-(trifluoromethoxy)cyclobutyl]-1,3,4-oxadiazol-2-yl}oxan-3-yl]-3,4-dihydro-2H-1-benzopyran-2-carboxamide], the EC50 was less than 10 nM. Regarding `O=C(NC12CC(NC(=O)[C@H]3C[C@@H](OC(F)(F)F)C3)(C1)C2)[C@H]1C[C@@H](O)c2cc(Cl)ccc2O1` [Compound 128, (2R,4R)-6-chloro-4-hydroxy-N-(3-{[(1s,3S)-3-(trifluoromethoxy)cyclobutane-1-carbonyl]amino}bicyclo[1.1.1]pentan-1-yl)-3,4-dihydro-2H-1-benzopyran-2-carboxamide], the EC50 was 500 to 2000 nM. For the molecule `O=C(COc1ccc(Cl)c(F)c1)N[C@@H]1CC[C@@H](C(=O)N2CC(Oc3ccc(Cl)cc3)C2)OC1` [Compound 120, 2-(4-chloro-3-fluorophenoxy)-N-{(3R,6S)-6-[3-(4-chlorophenoxy)azetidine-1-carbonyl]oxan-3-yl}acetamide], the EC50 is 10 to 50 nM. The value for `O=C(NC12CC(c3cnn(-c4ccc(Cl)cc4)c3)(C1)C2)[C@@H]1C[C@@H](O)c2cc(Cl)ccc2O1` [Compound 265, (2S,4R)-6-chloro-N-{3-[1-(4-chlorophenyl)-1H-pyrazol-4-yl]bicyclo[1.1.1]pentan-1-yl}-4-hydroxy-3,4-dihydro-2H-1-benzopyran-2-carboxamide] was 10 to 50 nM. As for `O=C(N[C@@H]1CC[C@@H](c2nnc([C@H]3C[C@@H](OC(F)(F)F)C3)o2)OC1)[C@@H]1C[C@H](O)c2cc(Cl)ccc2O1` (relative stereo) [Compound 170, (2S,4S)-6-chloro-4-hydroxy-N-[(3R,6S)-6-{5-[cis-3-(trifluoromethoxy)cyclobutyl]-1,3,4-oxadiazol-2-yl}oxan-3-yl]-3,4-dihydro-2H-1-benzopyran-2-carboxamide], the EC50 lay within 250 to 500 nM.

On to `O=C1CC(C(=O)N[C@@H]2CC[C@@H](C(=O)N3CC(Oc4ccc(Cl)cc4)C3)OC2)Oc2ccc(Cl)cc21` (stereo partly drawn) [Compound 139, 6-chloro-N-{(3R,6S)-6-[3-(4-chlorophenoxy)azetidine-1-carbonyl]oxan-3-yl}-4-oxo-3,4-dihydro-2H-1-benzopyran-2-carboxamide], for which the EC50 fell in the range of 500 to 2000 nM. Turning to `O=C(NC12CCC(C(=O)N[C@H]3C[C@@H](OC(F)(F)F)C3)(CC1)CC2)[C@H]1C[C@@H](O)c2cc(Cl)ccc2O1` [Compound 222, (2R,4R)-6-chloro-4-hydroxy-N-(4-{[cis-3-(trifluoromethoxy)cyclobutyl]carbamoyl}bicyclo[2.2.2]octan-1-yl)-3,4-dihydro-2H-1-benzopyran-2-carboxamide], the EC50 is 10 to 50 nM. Consider `O=C(COc1ccc(Cl)c(F)c1)N[C@H]1C[C@H]2O[C@@H]1C[C@@H]2c1nnc([C@H]2C[C@@H](OC(F)(F)F)C2)o1` (racemic) [Compound 168, 2-(4-chloro-3-fluorophenoxy)-N-[rac-(1R,2S,4R,5S)-5-{5-[cis-3-(trifluoromethoxy)cyclobutyl]-1,3,4-oxadiazol-2-yl}-7-oxabicyclo[2.2.1]heptan-2-yl]acetamide], for which the half-maximal effective concentration (EC50) lay in the range of 250 to 500 nM. `O=C(NC12CC(c3nc(-c4ccc(Cl)c(F)c4)no3)(C1)C2)[C@@H]1C[C@@H](O)c2cc(Cl)ccc2O1` [Compound 230, (2S,4R)-6-chloro-N-{3-[3-(4-chloro-3-fluorophenyl)-1,2,4-oxadiazol-5-yl]bicyclo[1.1.1]pentan-1-yl}-4-hydroxy-3,4-dihydro-2H-1-benzopyran-2-carboxamide]: the EC50 was 50 to 250 nM. Regarding `O=C(NC12CC(n3cnc(-c4ccc(Cl)c(F)c4)c3)(C1)C2)[C@H]1C[C@@H](O)c2cc(Cl)ccc2O1` [Compound 282, (2R,4R)-6-chloro-N-{3-[4-(4-chloro-3-fluorophenyl)-1H-imidazol-1-yl]bicyclo[1.1.1]pentan-1-yl}-4-hydroxy-3,4-dihydro-2H-1-benzopyran-2-carboxamide], the EC50 was less than 10 nM. As for `O=C(N[C@H]1CC[C@H](N2CCN(c3ccc(C(F)(F)F)nc3)C2=O)CC1)[C@@H]1C[C@@H](O)c2cc(Cl)ccc2O1` [Compound 309, (2S,4R)-6-chloro-4-hydroxy-N-[trans-4-{2-oxo-3-[6-(trifluoromethyl)pyridin-3-yl]imidazolidin-1-yl}cyclohexyl]-3,4-dihydro-2H-1-benzopyran-2-carboxamide], the EC50 was more than 2000 nM.

Take `O=C(NC12CC(N3CCC(c4ccc(Cl)cc4)C3=O)(C1)C2)[C@H]1C[C@@H](O)c2cc(Cl)ccc2O1` (single isomer, unassigned) [Compound 225, (2R,4R)-6-chloro-N-{3-[(3R*)-3-(4-chlorophenyl)-2-oxopyrrolidin-1-yl]bicyclo[1.1.1]pentan-1-yl}-4-hydroxy-3,4-dihydro-2H-1-benzopyran-2-carboxamide]: the 50% effective concentration (EC50) is 500 to 2000 nM. With `O=C(NC12CCC(c3nnc([C@H]4C[C@@H](OC(F)(F)F)C4)o3)(CC1)CC2)[C@@H]1C[C@H](O)c2cc(Cl)ccc2O1` [Compound 204, (2S,4S)-6-chloro-4-hydroxy-N-(4-{5-[cis-3-(trifluoromethoxy)cyclobutyl]-1,3,4-oxadiazol-2-yl}bicyclo[2.2.2]octan-1-yl)-3,4-dihydro-2H-1-benzopyran-2-carboxamide] the figure was 10 to 50 nM. Take `O=C(COc1ccc(Cl)c(F)c1)NC12CC(C(=O)NCC3CC(=O)c4cc(Cl)ccc4O3)(C1)C2` (stereo not shown) [Compound 103, 3-[2-(4-chloro-3-fluorophenoxy)acetamido]-N-[(6-chloro-4-oxo-3,4-dihydro-2H-1-benzopyran-2-yl)methyl]bicyclo[1.1.1]pentane-1-carboxamide]: the EC50 was in the range of 50 to 250 nM.

For `O=C(CO[C@H]1C[C@@H](OC(F)(F)F)C1)NC12CC(NC(=O)[C@@H]3C[C@H](O)c4cc(Cl)ccc4O3)(C1)C2` [Compound 295, (2S,4S)-6-chloro-4-hydroxy-N-[3-(2-{[cis-3-(trifluoromethoxy)cyclobutyl]oxy}acetamido)bicyclo[1.1.1]pentan-1-yl]-3,4-dihydro-2H-1-benzopyran-2-carboxamide], the concentration for a half-maximal effect (EC50) is 10 to 50 nM.

As for `O=C1C[C@H](C(=O)NC23CCC(C(=O)NCc4ccc(C(F)(F)F)cn4)(CC2)CC3)Oc2ccc(Cl)cc21` [Compound 106, (2R)-6-chloro-4-oxo-N-[4-({[5-(trifluoromethyl)pyridin-2-yl]methyl}carbamoyl)bicyclo[2.2.2]octan-1-yl]-3,4-dihydro-2H-1-benzopyran-2-carboxamide], the 50% effective concentration (EC50) lay in the range of 10 to 50 nM.

On to `O=C(NC12CCC(c3nnc([C@H]4C[C@@H](OC(F)(F)F)C4)o3)(CC1)CC2)[C@H]1C[C@@H](O)c2cc(Cl)ccc2O1` [Compound 203, (2R,4R)-6-chloro-4-hydroxy-N-(4-{5-[cis-3-(trifluoromethoxy)cyclobutyl]-1,3,4-oxadiazol-2-yl}bicyclo[2.2.2]octan-1-yl)-3,4-dihydro-2H-1-benzopyran-2-carboxamide], for which the EC50 is less than 10 nM. Consider `O=C(COc1ccc(Cl)cc1)NC12CCC(NC(=O)CO[C@H]3C[C@@H](OC(F)(F)F)C3)(CC1)CC2` [Compound 116, 2-(4-chlorophenoxy)-N-[4-(2-{[(1s,3s)-3-(trifluoromethoxy)cyclobutyl]oxy}acetamido)bicyclo[2.2.2]octan-1-yl]acetamide], for which the EC50 was less than 10 nM. With `O=C(NC12CC(c3cnn(-c4ccc(C(F)(F)F)nc4)c3)(C1)C2)[C@H]1C[C@@H](O)c2cc(Cl)ccc2O1` [Compound 262, (2R,4R)-6-chloro-4-hydroxy-N-(3-{1-[6-(trifluoromethyl)pyridin-3-yl]-1H-pyrazol-4-yl}bicyclo[1.1.1]pentan-1-yl)-3,4-dihydro-2H-1-benzopyran-2-carboxamide] the figure was less than 10 nM. In the case of `O=C(CO[C@H]1C[C@@H](OC(F)(F)F)C1)NC12CC(NC(=O)C3CC(=O)c4cc(Cl)ccc4O3)(C1)C2` (stereo partly shown) [Compound 113, 6-chloro-4-oxo-N-[3-(2-{[(1s,3s)-3-(trifluoromethoxy)cyclobutyl]oxy}acetamido)bicyclo[1.1.1]pentan-1-yl]-3,4-dihydro-2H-1-benzopyran-2-carboxamide], the EC50 is 10 to 50 nM.

Turning to `O=C(NC12CC(C3=NOC([C@H]4C[C@@H](OC(F)(F)F)C4)C3)(C1)C2)[C@@H]1C[C@@H](O)c2cc(Cl)ccc2O1` (stereo partly drawn) [Compound 233, (2S,4R)-6-chloro-4-hydroxy-N-(3-{5-[cis-3-(trifluoromethoxy)cyclobutyl]-4,5-dihydro-1,2-oxazol-3-yl}bicyclo[1.1.1]pentan-1-yl)-3,4-dihydro-2H-1-benzopyran-2-carboxamide], the EC50 fell in the range of 500 to 2000 nM. As to `O=C(NC12CC(c3ncc(-c4ccc(Cl)cc4)o3)(C1)C2)[C@H]1C[C@@H](O)c2cc(Cl)ccc2O1` [Compound 254, (2R,4R)-6-chloro-N-{3-[5-(4-chlorophenyl)-1,3-oxazol-2-yl]bicyclo[1.1.1]pentan-1-yl}-4-hydroxy-3,4-dihydro-2H-1-benzopyran-2-carboxamide], the half-maximal effective concentration (EC50) was less than 10 nM.

Turning to `O=C(NC12CC(NC(=O)[C@H]3C[C@@H](O)c4cc(Cl)ccc4O3)(C1)C2)c1cnc(-c2ccccc2)o1` [Compound 285, N-(3-{[(2R,4R)-6-chloro-4-hydroxy-3,4-dihydro-2H-1-benzopyran-2-carbonyl]amino}bicyclo[11.1]pentan-1-yl)-2-phenyl-1,3-oxazole-5-carboxamide], the EC50 was less than 10 nM. Turning to `O=C(N[C@H]1CC[C@H](C(=O)NCc2ccc(C(F)(F)F)cn2)CC1)[C@H]1C[C@H](O)c2cc(Cl)ccc2O1` [Compound 198, (2R,4S)-6-chloro-4-hydroxy-N-[trans-4-({[5-(trifluoromethyl)pyridin-2-yl]methyl}carbamoyl)cyclohexyl]-3,4-dihydro-2H-1-benzopyran-2-carboxamide], the concentration giving a half-maximal response (EC50) was 250 to 500 nM.

(Values after patent publication US20200347043A1, “MODULATORS OF THE INTEGRATED STRESS PATHWAY” (Calico Life Sciences LLC, priority 2019, published 2020).)
